This is an account of results in patent publication US20230248722A1, “CLOFAZIMINE COMPOSITION AND METHOD FOR THE TREATMENT OR PROPHYLAXIS OF VIRAL INFECTIONS” (priority 2020, published 2023).

This test concerns SARS-CoV-2. The class given is cell-based. The conditions noted are these: in vitro; 2.5 μM (or ~1.2 μg clofazimine/ml).

`CC(C)/N=c1\cc2n(-c3ccc(Cl)cc3)c3ccccc3nc-2cc1Nc1ccc(Cl)cc1` [clofazimine, N,5-bis(4-chlorophenyl)-3-propan-2-yliminophenazin-2-amine]: the “reduce or eliminate viral replication” value is recorded as 40%.
